# Test results reported in DBAASP.
# Columns and labels:
# Test in all cases: ≥ marks a high value that may be exact or a test limit, other limits are often not marked, values filed in µg/mL are converted to µM
# [1] = test system: Escherichia coli ATCC 25922
# Escherichia coli K88 = test system: Escherichia coli K88
# Escherichia coli K99 = test system: Escherichia coli K99
# Escherichia coli UB1005 = test system: Escherichia coli UB1005
# [2] = test system: Lacticaseibacillus rhamnosus 1.0385
# [3] = test system: Lacticaseibacillus rhamnosus 1.0911
# [4] = test system: Lacticaseibacillus rhamnosus 1.0936
# [5] = test system: Lacticaseibacillus rhamnosus 7469
# [6] = test system: Lactiplantibacillus plantarum 8014
# [7] = test system: Pseudomonas aeruginosa ATCC 27853
# [8] = test system: Salmonella enterica subsp. enterica serovar Pullorum C79-13
# [9] = test system: Salmonella enterica subsp. enterica serovar Typhimurium ATCC 14028
# [10] = test system: Salmonella enterica subsp. enterica serovar Typhimurium C77-31
# [11] = test system: Staphylococcus aureus ATCC 25923
# [12] = test system: Staphylococcus aureus ATCC 29213
# [13] = test system: Staphylococcus aureus ATCC 43300
# [14] = test system: Pseudomonas aeruginosa 15159
# [15] = test system: Staphylococcus aureus 2844
# [16] = test system: Staphylococcus aureus FDA 486
# [17] = test system: Bacillus subtilis ATCC 23857
# [18] = test system: Cronobacter sakazakii ATCC 29544
# [19] = test system: Staphylococcus epidermidis ATCC 12228
# [20] = test system: Acinetobacter baumannii ATCC 19606
# [21] = test system: Candida krusei ATCC 20029
# [22] = test system: Cryptococcus gattii ATCC 32608
# [23] = test system: Cryptococcus neoformans ATCC 24067
# [24] = test system: Staphylococcus aureus ATCC 33591
# [25] = test system: Bacillus anthracis Sterne 34F2
# Bacillus subtilis 168 = test system: Bacillus subtilis 168
# [26] = test system: Escherichia coli DH5alpha
# [27] = test system: Haemophilus influenzae ATCC 49247
# [28] = test system: Klebsiella pneumoniae NCTC 9633
# [29] = test system: Mycobacterium tuberculosis H37Ra
# [30] = test system: Pseudomonas aeruginosa PAO1
# [31] = test system: Staphylococcus aureus NRS 72
# [32] = test system: Staphylococcus aureus USA 300
# [33] = test system: Acinetobacter baumannii 7226/16
# [34] = test system: Escherichia coli ESBL 521/17
# Escherichia coli ML-35p = test system: Escherichia coli ML-35p
# [35] = test system: Klebsiella pneumoniae ESBL 344/17
# [36] = test system: Pseudomonas aeruginosa 522/17
# [37] = test system: Staphylococcus aureus 1399/17
# [38] = test system: Staphylococcus aureus SG511
compound,measurement,setting,value
CC(C)C[C@H](NC(=O)[C@H](CC(C)C)NC(=O)[C@H](Cc1c[nH]c2ccccc12)NC(=O)[C@H](Cc1c[nH]c2ccccc12)NC(=O)[C@H](Cc1c[nH]c2ccccc12)NC(=O)[C@H](CCCN=C(N)N)NC(=O)[C@H](CS)NC(=O)[C@H](Cc1ccccc1)NC(=O)[C@H](Cc1ccc(O)cc1)NC(=O)[C@H](CO)NC(=O)[C@H](C)NC(=O)[C@@H](N)CS)C(N)=O [CASYFCRWWWLL],MIC,[1],> 64 µM
same,MIC,Escherichia coli K88,≥ 64 µM
same,MIC,Escherichia coli K99,≥ 64 µM
same,MIC,Escherichia coli UB1005,≥ 64 µM
same,MIC,[2],≥ 64 µM
same,MIC,[3],≥ 64 µM
same,MIC,[4],≥ 64 µM
same,MIC,[5],≥ 64 µM
same,MIC,[6],≥ 64 µM
same,MIC,[7],> 64 µM
same,MIC,[8],≥ 64 µM
same,MIC,[9],> 64 µM
same,MIC,[10],≥ 64 µM
same,MIC,[11],> 64 µM
same,MIC,[12],> 64 µM
same,MIC,[13],> 64 µM
CC(=O)N[C@@H](CCC(=O)O)C(=O)N[C@@H](Cc1c[nH]c2ccccc12)C(=O)N[C@@H](CCCCN)C(=O)N[C@@H](CCCN=C(N)N)C(=O)N[C@@H](Cc1c[nH]c2ccccc12)C(=O)N[C@H](C(=O)N[C@@H](CCC(N)=O)C(=O)N[C@@H](CCCN=C(N)N)C(=O)N[C@@H](Cc1c[nH]c2ccccc12)C(=O)N[C@@H](CCCCN)C(=O)N[C@@H](CC(=O)O)C(=O)N[C@@H](Cc1c[nH]c2ccccc12)C(=O)N[C@@H](CC(C)C)C(=O)N[C@@H](CCCN=C(N)N)C(=O)N[C@@H](CC(N)=O)C(=O)N[C@@H](CC(C)C)C(=O)N[C@H](C(N)=O)C(C)C)C(C)C [EWKRWVQRWKDWLRNLV],MIC,[14],10 µM
same,MIC,[7],10 µM
same,MIC,[15],5 µM
same,MIC,[12],10 µM
same,MIC,[16],5 µM
CC[C@H](C)[C@H](N)C(=O)N[C@@H](CC(C)C)C(=O)NCC(=O)N[C@H](C(=O)N[C@H](C(=O)N[C@@H](CC(C)C)C(=O)NCC(=O)N[C@@H](CC(C)C)C(=O)N[C@@H](CC(C)C)C(=O)N[C@@H](CCCCN)C(=O)N[C@@H](Cc1ccccc1)C(=O)N[C@@H](CC(C)C)C(N)=O)[C@@H](C)CC)[C@@H](C)O [ILGTILGLLKFL],MIC,[17],4 µM
same,MIC,[18],≥ 256 µM
same,MIC,[11],4 µM
same,MIC,[12],4 µM
same,MIC,[19],2 µM
CC[C@H](C)[C@H](NC(C)=O)C(=O)N[C@@H](Cc1c[nH]c2ccccc12)C(=O)N[C@@H](CC(C)C)C(=O)N[C@H](C(=O)N[C@@H](CCCCN)C(=O)N[C@@H](C)C(=O)N[C@@H](CC(C)C)C(=O)N[C@@H](CCCCN)C(=O)N[C@@H](Cc1ccccc1)C(=O)N[C@@H](CC(C)C)C(=O)NCC(=O)N[C@@H](CCCCN)C(=O)N[C@@H](CC(N)=O)C(=O)N[C@@H](CC(C)C)C(=O)NCC(=O)N[C@@H](CCCCN)C(N)=O)[C@@H](C)O [IWLTKALKFLGKNLGK],MIC,[20],2.68 µM
same,MIC,[21],30.5 µM
same,MIC,[22],3.38 µM
same,MIC,[23],8.55 µM
same,MIC,[1],3.01 µM
same,MIC,[7],24.2 µM
same,MIC,[24],4.27 µM
same,MIC,[19],2.13 µM
CC(C)[C@H](NC(=O)[C@H](Cc1c[nH]c2ccccc12)NC(=O)[C@H](Cc1cnc[nH]1)NC(=O)[C@H](CCCN=C(N)N)NC(=O)[C@H](CCCN=C(N)N)NC(=O)[C@H](Cc1c[nH]c2ccccc12)NC(=O)[C@H](Cc1c[nH]c2ccccc12)NC(=O)[C@H](Cc1cnc[nH]1)NC(=O)[C@H](Cc1c[nH]c2ccccc12)NC(=O)[C@H](CCCN=C(N)N)NC(=O)[C@@H](N)CCCCN)C(=O)N[C@H](C(=O)N[C@@H](Cc1c[nH]c2ccccc12)C(N)=O)C(C)C [KRWHWWRRHWVVW],MIC,[20],50 µM
same,MIC,[25],≥ 80 µM
same,MIC,Bacillus subtilis 168,0.2 µM
same,MIC,[26],25 µM
same,MIC,[27],≥ 80 µM
same,MIC,[28],≥ 80 µM
same,MIC,[29],2.5 µM
same,MIC,[30],50 µM
same,MIC,[31],≥ 80 µM
same,MIC,[32],≥ 80 µM
CC[C@H](C)[C@H](NC(=O)[C@@H]1CCCN1C(=O)[C@@H]1CCCN1C(=O)[C@H](CCCN=C(N)N)NC(=O)[C@H](CCCN=C(N)N)NC(=O)[C@H](Cc1ccccc1)NC(=O)[C@@H]1CCCN1C(=O)[C@H](CC(C)C)NC(=O)[C@H](CCCN=C(N)N)NC(=O)[C@H](Cc1ccccc1)NC(=O)[C@@H](N)CCCN=C(N)N)C(=O)N[C@@H](CCCN=C(N)N)C(=O)N[C@H](C(=O)N1CCC[C@H]1C(=O)N1CCC[C@H]1C(=O)N1CCC[C@H]1C(=O)N[C@@H](Cc1ccccc1)C(=O)N[C@@H](Cc1ccc(O)cc1)C(=O)N1CCC[C@H]1C(=O)N1CCC[C@H]1C(=O)N[C@@H](Cc1ccccc1)C(=O)N[C@@H](CCCN=C(N)N)C(=O)N[C@@H](CCCN=C(N)N)C(=O)N[C@@H](Cc1ccccc1)C(=O)N[C@@H](CC(C)C)C(N)=O)[C@@H](C)CC [RFRLPFRRPPIRIPPPFYPPFRRFL],MIC,[33],8 µM
same,MIC,[34],2 µM
same,MIC,Escherichia coli ML-35p,4 µM
same,MIC,[35],2 µM
same,MIC,[36],11.3 µM
same,MIC,[37],4 µM
same,MIC,[24],16 µM
same,MIC,[38],0.5 µM
